From the CheMixHub viscosity set
± gives the uncertainty stated by the source.

Experiment: xn = mol fraction of the nth substance listed

COCCO + CC1COC(=O)O1
viscosity [mPa·s], 101.33 kPa
Conditions	298.15 K	308.15 K	318.15 K
x1 = 0.0271	2.41 ± 0.018	–	–
x1 = 0.0632	2.298 ± 0.029	1.913 ± 0.024	1.612 ± 0.021
x1 = 0.0927	2.24 ± 0.017	–	–
x1 = 0.1045	2.193 ± 0.027	1.824 ± 0.023	1.541 ± 0.02
x1 = 0.1523	2.104 ± 0.026	1.756 ± 0.022	1.484 ± 0.019
x1 = 0.1824	2.057 ± 0.015	–	–
x1 = 0.2117	2.004 ± 0.025	1.679 ± 0.021	1.423 ± 0.018
x1 = 0.2527	1.95 ± 0.025	1.634 ± 0.021	1.381 ± 0.018
x1 = 0.2995	1.917 ± 0.014	–	–
x1 = 0.305	1.89 ± 0.024	1.581 ± 0.02	1.339 ± 0.017
x1 = 0.3489	1.843 ± 0.023	1.537 ± 0.02	1.306 ± 0.017
x1 = 0.397	1.794 ± 0.023	1.492 ± 0.019	1.273 ± 0.017
x1 = 0.4053	1.813 ± 0.013	–	–
x1 = 0.4225	1.787 ± 0.013	–	–
x1 = 0.4547	1.745 ± 0.022	1.456 ± 0.019	1.224 ± 0.016
x1 = 0.4942	1.738 ± 0.013	–	–
x1 = 0.4979	1.717 ± 0.022	1.43 ± 0.018	1.214 ± 0.016
x1 = 0.5467	1.7 ± 0.013	–	–
x1 = 0.5531	1.68 ± 0.021	–	1.183 ± 0.015
x1 = 0.5954	1.664 ± 0.021	1.385 ± 0.018	1.172 ± 0.015
x1 = 0.5956	1.674 ± 0.012	–	–
x1 = 0.6388	–	1.361 ± 0.018	1.147 ± 0.015
x1 = 0.6429	1.652 ± 0.012	–	–
x1 = 0.6954	1.619 ± 0.021	1.341 ± 0.017	1.127 ± 0.015
x1 = 0.7027	1.626 ± 0.012	–	–
x1 = 0.7088	1.626 ± 0.012	–	–
x1 = 0.7346	1.593 ± 0.02	1.325 ± 0.017	1.111 ± 0.015
x1 = 0.7911	1.602 ± 0.012	–	–
x1 = 0.7959	1.574 ± 0.02	1.31 ± 0.017	1.098 ± 0.015
x1 = 0.8414	1.569 ± 0.02	1.297 ± 0.017	1.083 ± 0.014
x1 = 0.864	1.575 ± 0.011	–	–
x1 = 0.9025	1.545 ± 0.02	1.276 ± 0.017	1.076 ± 0.014
x1 = 0.9325	1.552 ± 0.011	–	–
x1 = 0.9593	1.546 ± 0.02	1.266 ± 0.017	1.055 ± 0.014
x2 = 0.0163	1.534 ± 0.011	–	–

N#C[S-].[Na+] + CO
viscosity [mPa·s], 101.3 kPa
Conditions	293.15 K	298.15 K	303.15 K	308.15 K	313.15 K	318.15 K	323.15 K
x1 = 0.003649	0.656 ± 0.049	0.608 ± 0.045	0.563 ± 0.042	0.526 ± 0.039	0.491 ± 0.037	0.46 ± 0.034	0.432 ± 0.032
x1 = 0.01456	0.819 ± 0.061	0.753 ± 0.056	0.695 ± 0.052	0.643 ± 0.048	0.597 ± 0.044	0.556 ± 0.041	0.518 ± 0.039
x1 = 0.03159	0.947 ± 0.07	0.871 ± 0.065	0.803 ± 0.059	0.743 ± 0.055	0.689 ± 0.051	0.646 ± 0.048	0.602 ± 0.045
x1 = 0.0463	1.117 ± 0.082	1.027 ± 0.076	0.947 ± 0.07	0.873 ± 0.064	0.811 ± 0.06	0.753 ± 0.056	0.703 ± 0.052
x1 = 0.05341	1.197 ± 0.088	1.101 ± 0.081	1.011 ± 0.075	0.932 ± 0.069	0.861 ± 0.064	0.798 ± 0.059	0.742 ± 0.055
x1 = 0.07204	1.409 ± 0.1	1.286 ± 0.095	1.176 ± 0.086	1.086 ± 0.08	1.011 ± 0.074	0.923 ± 0.068	0.859 ± 0.063
x1 = 0.08868	1.716 ± 0.13	1.552 ± 0.11	1.416 ± 0.1	1.293 ± 0.095	1.186 ± 0.087	1.092 ± 0.08	1.009 ± 0.074
x1 = 0.09954	1.915 ± 0.14	1.711 ± 0.12	1.514 ± 0.11	1.38 ± 0.1	1.261 ± 0.092	1.16 ± 0.085	1.068 ± 0.078
x1 = 0.1138	2.253 ± 0.17	1.996 ± 0.15	1.793 ± 0.13	1.624 ± 0.12	1.477 ± 0.11	1.353 ± 0.099	1.239 ± 0.09
x1 = 0.1229	2.36 ± 0.17	2.109 ± 0.15	1.904 ± 0.14	1.732 ± 0.13	1.565 ± 0.11	1.426 ± 0.1	1.304 ± 0.095
x1 = 0.1415	2.922 ± 0.21	2.58 ± 0.19	2.295 ± 0.17	2.055 ± 0.15	1.854 ± 0.14	1.683 ± 0.12	1.535 ± 0.11

O=P([O-])(O)O.[Li+] + O
viscosity [mPa·s], 101 kPa
Conditions	x1 = 0.0018	x1 = 0.0054	x1 = 0.0089	x1 = 0.012	x1 = 0.016
298.15 K	0.9076 ± 0.0079	1.021 ± 0.0091	1.099 ± 0.0099	1.209 ± 0.011	1.318 ± 0.011
303.15 K	0.8338 ± 0.0075	0.9078 ± 0.0084	0.9891 ± 0.009	1.084 ± 0.01	1.211 ± 0.011
308.15 K	0.7493 ± 0.0071	0.8183 ± 0.0076	0.888 ± 0.0083	0.9579 ± 0.0092	1.028 ± 0.011

CCCCBr + Cc1ccc(C)cc1
308.15 K, 101 kPa
Conditions	viscosity [mPa·s]
x2 = 0.1002	0.5174 ± 0.0044
x2 = 0.2	0.5139 ± 0.0044
x2 = 0.2996	0.5114 ± 0.0044
x2 = 0.3997	0.5104 ± 0.0044
x2 = 0.4329	0.5092 ± 0.0044
x2 = 0.6161	0.5084 ± 0.0043
x2 = 0.7006	0.5095 ± 0.0044
x2 = 0.7996	0.5107 ± 0.0044
x2 = 0.8946	0.5121 ± 0.0044

CCCCBr + c1ccccc1
101 kPa
Conditions	viscosity [mPa·s]
298.15 K, x1 = 0.066	0.588 ± 0.016
298.15 K, x1 = 0.1	0.583 ± 0.016
298.15 K, x1 = 0.134	0.574 ± 0.016
308.15 K, x1 = 0.066	0.518 ± 0.014
308.15 K, x1 = 0.1	0.515 ± 0.014
308.15 K, x1 = 0.134	0.51 ± 0.014
308.15 K, x2 = 0.094	0.5122 ± 0.0043
308.15 K, x2 = 0.2084	0.5022 ± 0.0041
308.15 K, x2 = 0.2997	0.4939 ± 0.0039
308.15 K, x2 = 0.395	0.4879 ± 0.0038
308.15 K, x2 = 0.5053	0.4828 ± 0.0037
308.15 K, x2 = 0.5954	0.4805 ± 0.0036
308.15 K, x2 = 0.6993	0.4823 ± 0.0035
308.15 K, x2 = 0.8012	0.4853 ± 0.0035
308.15 K, x2 = 0.9023	0.4943 ± 0.0035
318.15 K, x1 = 0.066	0.459 ± 0.012
318.15 K, x1 = 0.1	0.457 ± 0.012
318.15 K, x1 = 0.134	0.454 ± 0.012
323.15 K, x1 = 0.066	0.432 ± 0.012
323.15 K, x1 = 0.1	0.431 ± 0.012
323.15 K, x1 = 0.134	0.428 ± 0.012
